Patent publication US10577353B2, “5-(n-[6,5]-fused bicyclic aryl tetrahydroisoquinolin-6-yl) pyridin-3-yl acetic acid derivatives as inhibitors of human immunodeficiency virus replication” (priority 2015, dated 2020)

Test system: recombinant NL-RLuc virus (NL4-3 derived HIV)
Test: Inhibition of HIV replication (NL-RLuc virus in MT-2 cells, luciferase readout)
Assay type: cell-based
Conditions: Human immunodeficiency virus 1, NL43, MT2, 120 h
From the text: Inhibition of HIV Replication:
A recombinant NL-RLuc proviral clone was constructed in which a section of the nef gene from NL4-3 was replaced with the Renilla Luciferase gene. This virus is fully infectious and can undergo multiple cycles of replication in cell culture. In addition, the luciferous reporter provides a simple and easy method for quantitating the extent of virus growth and consequently, the antiviral activity of test compounds. The plasmid pNLRLuc contains the proviral NL-Rluc DNA cloned into pUC 18 at the PvuII site. The NL-RLuc virus was prepared by transfection of 293T cells with the plasmid pNLRLuc. Transfections were performed using the LipofectAMINE PLUS kit from Invitrogen (Carlsbad, Calif.) according to the manufacturer and the virus generated was titered in MT-2 cells. For susceptibility analyses, the titrated virus was used to infect MT-2 cells in the presence of compound, and after 5 days of incubation, cells were processed and quantitated for virus growth by the amount of expressed luciferase. Assay media was RPMI 1640 supplemented with 10% heat inactivated fetal bovine serum (FBS), 100 units/ml penicillin G/100 units/ml streptomycin, 10 mM HEPES buffer pH 7.55 and 2 mM L-glutamine. The results from at least 2 experiments were used to calculate the EC50 values. Luciferase was quantitated using the Dual Luciferase kit from Promega (Madison, Wis.). Susceptibility of viruses to compounds was determined by incubation in the presence of serial dilutions of the compound. The 50% effective concentration (EC50) was calculated by using the exponential form of the median effect equation where (Fa)=1/[1+(ED50/drug conc.)^m] (Johnson V A, Byington R T. Infectivity Assay. In Techniques in HIV Research. ed. Aldovini A, Walker B D. 71-76. New York: Stockton Press. 1990).

| SMILES | EC50 [nM] |
| --- | --- |
| Cc1nc(C)c([C@H](OC(C)(C)C)C(=O)O)c(N2CCC(C)(C)CC2)c1-c1ccc2c(c1)CCN(c1ncnc3cc[nH]c13)C2 [Compound 22, (S)-2-(5-(2-(5H-pyrrolo[3,2-d]pyrimidin-4-yl)-1,2,3,4-tetrahydroisoquinolin-6-yl)-4-(4,4-dimethylpiperidin-1-yl)-2,6-dimethylpyridin-3-yl)-2-(tert-butoxy)acetic acid] | 286 |
| CNc1nc(N2CCc3cc(-c4c(C)nc(C)c([C@H](OC(C)(C)C)C(=O)O)c4N4CCC(C)(C)CC4)ccc3C2)nc2nc[nH]c12 [Compound 23, (S)-2-(tert-butoxy)-2-(4-(4,4-dimethylpiperidin-1-yl)-2,6-dimethyl-5-(2-(6-(methylamino)-7H-purin-2-yl)-1,2,3,4-tetrahydroisoquinolin-6-yl)pyridin-3-yl)acetic acid] | 62 |
| Cc1nc(C)c([C@H](OC(C)(C)C)C(=O)O)c(N2CCC(C)(C)CC2)c1-c1ccc2c(c1)CCN(c1nccc3[nH]cnc13)C2 [Compound 24, (S)-2-(5-(2-(1H-imidazo[4,5-c]pyridin-4-yl)-1,2,3,4-tetrahydroisoquinolin-6-yl)-4-(4,4-dimethylpiperidin-1-yl)-2,6-dimethylpyridin-3-yl)-2-(tert-butoxy)acetic acid] | 56 |
| Cc1nc(C)c([C@H](OC(C)(C)C)C(=O)O)c(N2CCC(C)(C)CC2)c1-c1ccc2c(c1)CCN(c1ncc3cc[nH]c3n1)C2 [Compound 25, (S)-2-(5-(2-(7H-pyrrolo[2,3-d]pyrimidin-2-yl)-1,2,3,4-tetrahydroisoquinolin-6-yl)-4-(4,4-dimethylpiperidin-1-yl)-2,6-dimethylpyridin-3-yl)-2-(tert-butoxy)acetic acid] | 4 |
| COc1nc(N2CCc3cc(-c4c(C)nc(C)c([C@H](OC(C)(C)C)C(=O)O)c4N4CCC(C)(C)CC4)ccc3C2)c2cc[nH]c2n1 [Compound 27, (S)-2-(tert-butoxy)-2-(4-(4,4-dimethylpiperidin-1-yl)-5-(2-(2-methoxy-7H-pyrrolo[2,3-d]pyrimidin-4-yl)-1,2,3,4-tetrahydroisoquinolin-6-yl)-2,6-dimethylpyridin-3-yl)acetic acid] | 2 |
| Cc1nc(C)c([C@H](OC(C)(C)C)C(=O)O)c(N2CCC(C)(C)CC2)c1-c1ccc2c(c1)CCN(c1ncnc3cc(C(C)(C)C)sc13)C2 [Compound 28, (S)-2-(tert-butoxy)-2-(5-(2-(6-(tert-butyl)thieno[3,2-d]pyrimidin-4-yl)-1,2,3,4-tetrahydroisoquinolin-6-yl)-4-(4,4-dimethylpiperidin-1-yl)-2,6-dimethylpyridin-3-yl)acetic acid] | 13 |
